Measured values: paper PMC10101011, “A Retro-Aldol Reaction Prompted the Evolvability of a Phosphotransferase System for the Utilization of a Rare Sugar” (Microbiology Spectrum, 2023)

What was measured:
Format in all cases: biochemical
FruK (EC_FruK) [1] = target: T1, FruK (EC_FruK) (Escherichia coli, UniProt P0AEW9, A39S); test: coupled NADH oxidation assay (GatY, TPI, G3PDH); conditions: 2 mM ATP, 2 mM substrate, 10 mM MgCl2, pH 8.0, 25 °C
T1 construct: His-tagged, pET-28a(+), expressed in E. coli BL21(DE3)

EC_GatY = target: T2, EC_GatY (Escherichia coli, UniProt P0C8J6); test: coupled NADH oxidation assay (TPI, G3PDH); conditions: 1 mM substrate, 10 mM MgCl2, pH 8.0, 25 °C
T2 construct: gene gatY; catalytic subunit alone without GatZ, His-tagged, pET-28a(+), 30 kDa

EC_KbaY = target: T3, EC_KbaY (Escherichia coli, UniProt P0AB74); test: coupled NADH oxidation assay (TPI, G3PDH); conditions: 1 mM substrate, 10 mM MgCl2, pH 8.0, 25 °C
T3 construct: gene kbaY; catalytic subunit alone without KbaZ, His-tagged, pET-28a(+), 31 kDa

FruK (EC_FruK) [2] = target: T4, FruK (EC_FruK) (Escherichia coli, UniProt P0AEW9); test: coupled NADH oxidation assay (FbaA, TPI, G3PDH); conditions: 2 mM ATP, 2 mM substrate, 10 mM MgCl2, pH 8.0, 25 °C
T4 construct: His-tagged, pET-28a(+), expressed in E. coli BL21(DE3)
T4 sequence (P0AEW9 whole entry): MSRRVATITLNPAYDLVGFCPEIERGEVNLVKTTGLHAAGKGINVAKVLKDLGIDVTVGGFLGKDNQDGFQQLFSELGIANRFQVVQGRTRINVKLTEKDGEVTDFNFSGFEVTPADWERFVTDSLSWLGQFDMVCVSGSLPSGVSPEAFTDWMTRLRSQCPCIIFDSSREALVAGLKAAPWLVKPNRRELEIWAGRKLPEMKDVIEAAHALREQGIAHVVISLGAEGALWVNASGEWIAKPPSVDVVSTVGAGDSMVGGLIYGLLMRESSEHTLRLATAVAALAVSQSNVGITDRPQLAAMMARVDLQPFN

T2 sequence (P0C8J6 whole entry): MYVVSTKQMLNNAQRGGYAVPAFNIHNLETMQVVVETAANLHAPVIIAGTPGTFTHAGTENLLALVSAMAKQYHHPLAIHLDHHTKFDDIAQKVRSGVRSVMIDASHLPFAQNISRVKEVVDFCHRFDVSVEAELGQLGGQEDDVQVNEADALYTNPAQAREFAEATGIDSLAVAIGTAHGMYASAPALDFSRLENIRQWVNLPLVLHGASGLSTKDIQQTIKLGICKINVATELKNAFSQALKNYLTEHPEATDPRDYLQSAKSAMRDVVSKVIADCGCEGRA
T3 sequence (P0AB74 whole entry): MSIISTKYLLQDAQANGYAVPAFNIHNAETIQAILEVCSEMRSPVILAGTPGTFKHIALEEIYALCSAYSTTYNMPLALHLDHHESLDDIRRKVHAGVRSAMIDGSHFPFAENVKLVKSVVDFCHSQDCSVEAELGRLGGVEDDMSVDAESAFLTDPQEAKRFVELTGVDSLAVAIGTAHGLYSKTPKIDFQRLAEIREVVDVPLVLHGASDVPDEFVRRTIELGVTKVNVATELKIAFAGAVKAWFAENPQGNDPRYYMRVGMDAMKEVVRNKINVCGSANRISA
T1 sequence (P0AEW9 whole entry A39S): as the sequence (P0AEW9 whole entry) above, with A39S counted along it

Structure (SMILES): O=P(O)(O)OC[C@H]1OC(O)(CO)[C@@H](O)[C@H]1O (stereo partly drawn) [D-Tag-6P]
- coupled NADH oxidation assay (GatY, TPI, G3PDH) (FruK (EC_FruK) [1]): FruK_A39S showed relatively higher activities for D-Tag-6P than FruK_WT

Structure (SMILES): O=P(O)(O)OC[C@H]1OC(O)(COP(=O)(O)O)[C@@H](O)[C@H]1O (stereo partly drawn) [D-Tag-1,6-BP]
- coupled NADH oxidation assay (TPI, G3PDH) (EC_GatY): EC_GatY and EC_KbaY showed much lower D-Tag-1,6-BP cleavage activity than BL_GatY
- coupled NADH oxidation assay (TPI, G3PDH) (EC_KbaY): EC_GatY and EC_KbaY showed much lower D-Tag-1,6-BP cleavage activity than BL_GatY

Structure (SMILES): O=P(O)(O)OCC1(O)O[C@H](CO)[C@@H](O)[C@@H]1O (stereo partly drawn) [D-Fru-1P]
- coupled NADH oxidation assay (FbaA, TPI, G3PDH) (FruK (EC_FruK) [2]): for primary D-Fru-1P were much lower than that of FruK_WT
